Patent US12264156B2, “Compounds and pharmaceutical compositions thereof for the treatment of diseases” (GALAPAGOS NV, priority 2018, dated 2025)

Experiments:
SIK3 = biological target: T1, SIK3 (Homo sapiens, UniProt Q9Y2K2); experiment: ADP-Glo kinase assay, SIK3; format: biochemical; settings: ADP-Glo SIK kinase assay
T1 construct: purchased SignalChem S12-11G-100
Outline: (§1)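 Wells with 1% DMSO or 10 μM staurosporine (final) define the control window. The kinase reaction with substrate and ATP runs 120 min at RT, followed by ADP-Glo detection: ATP depletion (40 min) and ADP-derived luminescence (30 min).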

SIK1 = biological target: T2, SIK1 (Homo sapiens, UniProt P57059); experiment: ADP-Glo kinase assay, SIK1; format: biochemical; settings: ADP-Glo SIK kinase assay
T2 construct: purchased Carna Biosciences 02-131
T2 sequence (P57059 whole entry): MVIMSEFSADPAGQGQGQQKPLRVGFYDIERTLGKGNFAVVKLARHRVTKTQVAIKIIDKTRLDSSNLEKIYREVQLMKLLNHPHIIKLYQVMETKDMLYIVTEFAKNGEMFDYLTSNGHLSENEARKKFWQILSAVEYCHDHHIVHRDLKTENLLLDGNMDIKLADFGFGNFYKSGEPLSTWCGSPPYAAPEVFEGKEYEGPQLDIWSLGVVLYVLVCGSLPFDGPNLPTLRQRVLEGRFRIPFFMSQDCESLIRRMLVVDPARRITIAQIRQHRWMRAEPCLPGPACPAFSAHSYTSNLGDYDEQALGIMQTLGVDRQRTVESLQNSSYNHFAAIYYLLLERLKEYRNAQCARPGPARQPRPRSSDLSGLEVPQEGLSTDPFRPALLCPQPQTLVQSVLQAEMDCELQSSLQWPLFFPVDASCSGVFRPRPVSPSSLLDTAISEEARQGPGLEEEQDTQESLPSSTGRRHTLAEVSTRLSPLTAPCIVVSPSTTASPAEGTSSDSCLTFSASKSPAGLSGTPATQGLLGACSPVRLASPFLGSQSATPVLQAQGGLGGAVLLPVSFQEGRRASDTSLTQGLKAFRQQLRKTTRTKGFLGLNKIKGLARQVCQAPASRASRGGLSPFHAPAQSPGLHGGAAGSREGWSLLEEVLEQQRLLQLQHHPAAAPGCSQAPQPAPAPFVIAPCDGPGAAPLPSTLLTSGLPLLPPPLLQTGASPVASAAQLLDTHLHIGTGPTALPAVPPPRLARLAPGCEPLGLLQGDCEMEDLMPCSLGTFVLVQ
Outline: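 Enzyme–substrate mix was started with ATP and incubated 120 min at RT. ADP formed was quantified by ADP-Glo: 40 min ATP depletion, then 30 min detection reagent converting ADP to ATP for luciferase luminescence, which rises with kinase activity. Controls: 1% DMSO and 10 μM staurosporine (final).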

[1] = system: LPS-induced TNFα in monocyte-derived macrophages (MdM); experiment: MdM assay: LPS-triggered TNFα (ELISA); format: cell-based, human; settings: Homo sapiens, Macrophage, 20 h, monocyte-derived macrophages, LPS 200 ng/mL, supernatant after 20 h; read-out: TNFα EC50
Procedure: This assay evaluates illustrative compounds of the invention for their inhibition of LPS-induced TNFα and LPS triggered IL-10 secretion in monocyte-derived macrophages.
PBMCs are isolated from human blood samples (buffycoats). The buffy coat is aseptically transferred into a 50 mL Falcon tube, and diluted 1/2 in PBS. Falcon tubes are filled with 20 mL Lymphoprep™, on top of which 25 mL of the buffy coat is carefully added, tubes are centrifuged for 35 min at 400 g in temperature controlled centrifuge, without brake, at 25° C. PBMCs are aspirated from the white interface layer between sample and Lymphoprep™. PBMCs are washed five times in PBS.
PBMCs are centrifuged at 300×g for 10 min and resuspended at a density of 1.0*10^7 cells/80 μL Miltenyi buffer (PBS, pH 7.4, 1% FBS, 2 mM EDTA).
Starting from this point of the protocol all steps are performed on ice. 20 μL of CD14+ micro-beads are added per 1.0*10^7 cells, the tube is mixed and incubated for 15 min in the fridge at 4° C. Cell suspension volume is adjusted to total volume of 100 mL using Miltenyi buffer, mixed gently and subsequently centrifuged for 10 min at 300×g. Supernantant is discarded and cell pellet is resuspended in 12 mL of Miltenyi buffer.
Four LS columns are placed in the MACS Separator (magnet) from Miltenyi Biotec, and are prewet by rinsing with 3 mL of MACS buffer per column. Three mL of cell suspension is added onto the column (max 1*10^8 of labelled cells/column), and columns are subsequently washed 3 times with 3 mL of Miltenyi buffer.
The columns are removed from the magnets, and 5 mL of Miltenyi buffer are added to the column to flush out the CD14+ fraction by pushing the plunger into the column. The flushed fractions are collected in a fresh 50 mL Falcon and volume is adjusted to 30 mL using Miltenyi buffer, cells are centrifuged for 10 min at 300×g. The obtained cell pellet is resuspended in 10 mL RPMI w/o FBS, and cell density is determined using a hematologic analyser (Sysmex XS-500i).
On day 10, MdMs are triggered and compound is added.
A compound dilution plate is made in 100% DMSO by 3-fold dilution of 10 mM stock solution. An intermediate dilution plate (10× final concentration) is made by diluting the compound dilution plate 50-fold in RPMI medium.
Medium is carefully removed from cell plates using multichannel pipette, and replaced by 80 μL fresh medium. 10 μL of the 10× final concentration compound is added to the cells and incubated for 1 hour at 37° C. before addition of trigger. No trigger conditions/trigger conditions are spiked with equal final DMSO concentrations of 0.2% DMSO. 10 μL of 10×LPS (final conc. 200 ng/mL) solution are added to all wells except for the ‘no trigger wells’ where 10 μL medium is added. Supernatant is collected after 2 h (IL-10 determination) and after 20 h (TNFα determination) of LPS triggering.
The plate is then washed once with PBST (PBS+0.05% Tween20) and once with PBS followed by the addition of 100 μL of blocking buffer (1% Bovine Serum Albumin (BSA)−5% Sucrose) and plates are sealed and incubated for at least 4 h at RT. After washing the plate once with PBST and once with PBS, 40 μL of standard or sample are added (TNFα standard curve is prepared using a 1/2 serial dilution starting from […]; dilutions are made in dilution buffer (PBS+1% BSA)). Plates are washed twice with PBST, and once with PBS, after which 35 μL of the detection antibody is added (final concentration 0.25 μg/mL diluted in dilution buffer) and plates are incubated for at least 2 h at RT. Plates are washed twice with PBST, and once with PBS, where after 35 μL of Strep-HRP conjugate (0.5 μg/mL final concentration diluted in dilution buffer) is added. Plates are incubated in the dark, at RT for at least 45 min but no longer than 1 hour. Plates are washed twice with PBST, and once with PBS.

SIK2 = biological target: T3, SIK2 (Homo sapiens, UniProt Q9H0K1); experiment: ADP-Glo kinase assay, SIK2; format: biochemical; settings: ADP-Glo SIK kinase assay
T3 construct: purchased ThermoFisher Scientific PV4792
T3 sequence (Q9H0K1 whole entry): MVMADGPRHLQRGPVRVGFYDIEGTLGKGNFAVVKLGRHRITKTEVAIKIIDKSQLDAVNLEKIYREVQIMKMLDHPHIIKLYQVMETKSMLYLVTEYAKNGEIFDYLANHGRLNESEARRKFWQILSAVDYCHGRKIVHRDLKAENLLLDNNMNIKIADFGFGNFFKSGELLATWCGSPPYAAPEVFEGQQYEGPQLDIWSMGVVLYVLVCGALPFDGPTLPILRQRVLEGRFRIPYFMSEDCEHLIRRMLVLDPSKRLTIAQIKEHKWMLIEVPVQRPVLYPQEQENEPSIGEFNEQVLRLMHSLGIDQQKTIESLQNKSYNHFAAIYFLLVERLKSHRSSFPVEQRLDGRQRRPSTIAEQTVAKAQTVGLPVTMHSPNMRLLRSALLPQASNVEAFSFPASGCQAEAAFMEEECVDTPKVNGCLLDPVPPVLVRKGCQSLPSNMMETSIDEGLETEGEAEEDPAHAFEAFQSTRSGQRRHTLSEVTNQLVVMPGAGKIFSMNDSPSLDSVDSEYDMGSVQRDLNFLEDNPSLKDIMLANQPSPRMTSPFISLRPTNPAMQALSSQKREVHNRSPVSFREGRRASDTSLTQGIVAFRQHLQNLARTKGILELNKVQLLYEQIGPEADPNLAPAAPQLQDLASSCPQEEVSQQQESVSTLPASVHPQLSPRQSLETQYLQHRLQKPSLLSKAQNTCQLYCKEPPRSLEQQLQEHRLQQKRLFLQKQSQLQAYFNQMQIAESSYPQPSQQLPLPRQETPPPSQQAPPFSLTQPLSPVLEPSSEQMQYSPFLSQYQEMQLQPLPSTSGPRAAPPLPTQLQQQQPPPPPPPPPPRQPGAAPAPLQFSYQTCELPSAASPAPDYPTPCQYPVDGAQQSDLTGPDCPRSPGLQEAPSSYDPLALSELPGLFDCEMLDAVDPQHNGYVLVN
Outline: as §1

T1 sequence (Q9Y2K2 whole entry): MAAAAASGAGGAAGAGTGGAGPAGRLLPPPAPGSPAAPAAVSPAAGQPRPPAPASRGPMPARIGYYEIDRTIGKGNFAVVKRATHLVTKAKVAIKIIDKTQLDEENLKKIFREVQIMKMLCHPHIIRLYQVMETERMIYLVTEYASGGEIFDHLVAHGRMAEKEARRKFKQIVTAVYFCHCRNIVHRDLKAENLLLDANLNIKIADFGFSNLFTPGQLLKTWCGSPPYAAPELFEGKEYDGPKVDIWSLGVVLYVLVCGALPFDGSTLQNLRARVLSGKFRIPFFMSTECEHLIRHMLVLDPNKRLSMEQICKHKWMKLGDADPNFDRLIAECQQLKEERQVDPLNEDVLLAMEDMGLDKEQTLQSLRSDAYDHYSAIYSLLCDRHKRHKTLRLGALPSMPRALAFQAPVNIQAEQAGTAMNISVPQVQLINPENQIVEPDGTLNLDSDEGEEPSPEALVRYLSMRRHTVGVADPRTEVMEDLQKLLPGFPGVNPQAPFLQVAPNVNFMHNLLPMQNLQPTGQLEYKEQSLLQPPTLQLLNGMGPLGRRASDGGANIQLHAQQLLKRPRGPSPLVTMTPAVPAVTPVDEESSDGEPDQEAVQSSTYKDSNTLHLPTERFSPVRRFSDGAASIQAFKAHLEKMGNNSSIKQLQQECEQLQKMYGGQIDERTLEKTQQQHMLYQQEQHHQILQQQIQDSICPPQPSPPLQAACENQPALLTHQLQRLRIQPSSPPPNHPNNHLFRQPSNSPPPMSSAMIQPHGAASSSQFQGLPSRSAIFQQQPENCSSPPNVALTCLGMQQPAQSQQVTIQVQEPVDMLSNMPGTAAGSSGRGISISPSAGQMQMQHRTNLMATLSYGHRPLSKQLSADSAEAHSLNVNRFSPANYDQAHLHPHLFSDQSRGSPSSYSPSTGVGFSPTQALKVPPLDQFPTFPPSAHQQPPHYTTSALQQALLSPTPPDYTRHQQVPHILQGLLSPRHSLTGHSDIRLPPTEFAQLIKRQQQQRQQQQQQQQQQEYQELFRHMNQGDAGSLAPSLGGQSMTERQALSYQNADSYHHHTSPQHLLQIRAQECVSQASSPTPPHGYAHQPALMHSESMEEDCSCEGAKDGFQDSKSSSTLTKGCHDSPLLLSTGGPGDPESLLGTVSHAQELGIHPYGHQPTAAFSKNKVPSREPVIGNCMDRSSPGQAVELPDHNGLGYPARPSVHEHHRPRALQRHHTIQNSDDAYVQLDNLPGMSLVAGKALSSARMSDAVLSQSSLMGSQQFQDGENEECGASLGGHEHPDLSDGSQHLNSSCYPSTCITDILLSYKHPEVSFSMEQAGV

Row | Compound | IC50 (SIK3) [nM] | IC50 (SIK1) [nM] | EC50 [1] [nM] | IC50 (SIK2) [nM]
1 | COc1cc(-c2cnc3cc(OCCN4CC[C@H](F)C4)ccn23)cc(OC(F)F)c1C(=O)NC1CC1 [Cpd 160, N-cyclopropyl-2-(difluoromethoxy)-4-[7-[2-[(3S)-3-fluoropyrrolidin-1-yl]ethoxy]imidazo[1,2-a]pyridin-3-yl]-6-methoxy-benzamide] | 0.01 to 10 | 10 to 100 | 100 to 1000 | 0.01 to 10
2 | COc1cc(-c2cnc3cc(OC[C@@H]4CC(F)(F)CN4C)ccn23)cc(OC(F)F)c1C(=O)NC1CC1 [Cpd 189, N-cyclopropyl-2-(difluoromethoxy)-4-[7-[[(2S)-4,4-difluoro-1-methyl-pyrrolidin-2-yl]methoxy]imidazo[1,2-a]pyridin-3-yl]-6-methoxy-benzamide] | 0.01 to 10 | 10 to 100 | 100 to 1000 | 0.01 to 10
3 | COc1cc(-c2cnc3cc(OCCN4CCOCC4)ccn23)cc2c1C(=O)NCC2 [Cpd 217, 8-methoxy-6-[7-(2-morpholinoethoxy)imidazo [1,2-a]pyridin-3-yl]-3,4-dihydro-2H-isoquinolin-1-one] | 0.01 to 10 | 10 to 100 | 100 to 1000 | 0.01 to 10
4 | O=C1c2c(cc(-c3cnc4cc(OCCN5CCOCC5)ccn34)cc2OC(F)F)CCN1C1CC1 [Cpd 224, 2-cyclopropyl-8-(difluoromethoxy)-6-[7-(2-morpholinoethoxy)imidazo [1,2-a]pyridin-3-yl]-3,4-dihydroisoquinolin-1-one] | 0.01 to 10 | 100 to 500 | 100 to 1000 | 0.01 to 10
5 | COc1cc(-c2cnc3cc(OCCCN4CCOCC4)ccn23)cc(OC(F)F)c1C(=O)NC1CC1 [compound 21, N-cyclopropyl-2-(difluoromethoxy)-6-methoxy-4-[7-(3-morpholinopropoxy)imidazo[1,2-a]pyridin-3-yl]benzamide] | 0.01 to 10 | 10 to 100 | 0.1 to 100 | 0.01 to 10
6 | COc1cc(-c2cnc3cc(OCc4cnco4)ccn23)cc(OC(F)F)c1C(=O)NC1CC1 [compound 33, N-cyclopropyl-2-(difluoromethoxy)-6-methoxy-4-[7-(oxazol-5-ylmethoxy)imidazo[1,2-a]pyridin-3-yl]benzamide] | 0.01 to 10 | 10 to 100 | 0.1 to 100 | 0.01 to 10
7 | COc1cc(-c2cnc3cc(OCC4CCO4)ccn23)cc(OC(F)F)c1C(=O)NC1CC1 (centres unmarked) [compound 35, N-cyclopropyl-2-(difluoromethoxy)-6-methoxy-4-[7-(oxetan-2-ylmethoxy)imidazo[1,2-a]pyridin-3-yl]benzamide] | 0.01 to 10 | 10 to 100 | 100 to 1000 | 0.01 to 10
8 | COc1cc(-c2cnc3cc(OCC4CCCCO4)ccn23)cc(OC(F)F)c1C(=O)NC1CC1 (centres unmarked) [compound 48, N-cyclopropyl-2-(difluoromethoxy)-6-methoxy-4-[7-(tetrahydropyran-2-ylmethoxy)imidazo[1,2-a]pyridin-3-yl] benzamide] | 0.01 to 10 | 10 to 100 | 0.1 to 100 | 0.01 to 10
9 | COc1cc(-c2cnc3cc(OC[C@H]4COCCO4)ccn23)cc(OC(F)F)c1C(=O)NC1CC1 [compound 50, N-cyclopropyl-2-(difluoromethoxy)-4-[7-[[(2R)-1,4-dioxan-2-yl]methoxy]imidazo[1,2-a]pyridin-3-yl]-6-methoxy-benzamide] | 0.01 to 10 | 10 to 100 | 100 to 1000 | 0.01 to 10
10 | COc1cc(-c2cnc3cc(OCCCN4CCOCC4)ccn23)cc2c1C(=O)N(CC(F)(F)F)CC2 [compound 55, 8-methoxy-6-[7-(3-morpholinopropoxy)imidazo[1,2-a]pyridin-3-yl]-2-(2,2,2-trifluoroethyl)-3,4-dihydro isoquinolin-1-one] | 0.01 to 10 | 100 to 500 | 100 to 1000 | 0.01 to 10
11 | COc1cc(-c2cnc3cc(OC4CC5CCC4C5)ccn23)cc(OC(F)F)c1C(=O)NC1CC1 (centres unmarked) [compound 58, N-cyclopropyl-2-(difluoromethoxy)-6-methoxy-4-(7-norbornan-2-yloxyimidazo[1,2-a]pyridin-3-yl)benzamide] | 0.01 to 10 | 10 to 100 | 1000 to 5000 | 10 to 100
12 | COc1cc(-c2cnc3cc(OCCN(C)C)ccn23)cc2c1C(=O)N(CC#N)CC2 [compound 67, 2-[6-[7-[2-(dimethylamino)ethoxy]imidazo[1,2-a]pyridin-3-yl]-8-methoxy-1-oxo-3,4-dihydroisoquinolin-2-yl]acetonitrile] | 0.01 to 10 | > 500 | 1000 to 5000 | 0.01 to 10
13 | COc1cc(-c2cnc3cc(OCCN(C(C)C)C(C)C)ccn23)cc(OC(F)F)c1C(=O)NC1CC1 [compound 78, N-cyclopropyl-2-(difluoromethoxy)-4-[7-[2-(diisopropylamino)ethoxy]imidazo[1,2-a]pyridin-3-yl]-6-methoxy-benzamide] | 0.01 to 10 | 100 to 500 | 100 to 1000 | 0.01 to 10
14 | COc1cc(-c2cnc3cc(OC[C@@H]4CCCN4C)ccn23)cc(OC(F)F)c1C(=O)NC1CC1 [compound 79, N-cyclopropyl-2-(difluoromethoxy)-6-methoxy-4-[7-[[(2S)-1-methylpyrrolidin-2-yl]methoxy]imidazo[1,2-a]pyridin-3-yl]benzamide] | 0.01 to 10 | 10 to 100 | 100 to 1000 | 0.01 to 10
15 | COc1cc(-c2cnc3cc(OCc4ccnn4C)ccn23)cc2c1C(=O)N(CC(F)(F)F)CC2 [compound 84, 8-methoxy-6-[7-[(2-methylpyrazol-3-yl)methoxy]imidazo[1,2-a]pyridin-3-yl]-2-(2,2,2-trifluoroethyl)-3,4-dihydroisoquinolin-1-one] | 0.01 to 10 | 100 to 500 | 100 to 1000 | 10 to 100
16 | COc1cc(-c2cnc3cc(OCc4nccn4C)ccn23)cc(OC(F)F)c1C(=O)NC1CC1 [compound 110, N-cyclopropyl-2-(difluoromethoxy)-6-methoxy-4-[7-[(1-methylimidazol-2-yl)methoxy]imidazo[1,2-a]pyridin-3-yl]benzamide] | 0.01 to 10 | 100 to 500 | 100 to 1000 | 0.01 to 10
17 | COc1cc(-c2cnc3cc(OCC(C)N)ccn23)cc(OC(F)F)c1C(=O)NC1CC1 (centres unmarked) [compound 138, 4-[7-(2-aminopropoxy)imidazo [1,2-a]pyridin-3-yl]-N-cyclopropyl-2-(difluoromethoxy)-6-methoxy-benzamide] | 0.01 to 10 | 10 to 100 | 1000 to 5000 | 0.01 to 10
